Assay results reported in article PMC8658989, “Synthesis and Biological Studies on (KLAKLAK)2-NH2 Analog Containing Unnatural Amino Acid β-Ala and Conjugates with Second Pharmacophore” (Molecules, 2021).
Several values for one entry are separate records, joined by “and”; a condition that tells them apart may be missing. Equal entries are not always repeated. Where two headings read alike, the source gives them in different places. No end group written: not given here.

Columns and labels:
MDA-MB-231 [1] = system: MDA-MB-231; set-up: method as in PMID 33567789; details: MTT; data already published; ref [25]; read-out: IC50 of Mean ± SD Antiproliferative Activity MDA-MB-231; cited from earlier work
MCF-7 [2] = system: MCF-7; set-up: method as in PMID 33567789; details: MTT; data already published; ref [25]; read-out: IC50 of Mean ± SD Antiproliferative Activity MCF-7; cited from earlier work
MCF-10A [3] = system: MCF-10A; set-up: method as in PMID 33567789; details: MTT; data already published; ref [25]; read-out: IC50 of Mean ± SD Antiproliferative Activity MCF-10A; cited from earlier work
MCF-7 [4] = experiment: Antiproliferative activity, MTT dye-reduction assay, MCF-7; type: cell-based, human; details: for SI ± SD MCF-7 (selective index): SI = IC50 of MCF-10A/IC50 of MCF-7
Experimental: (§1) The compounds were studied for antiproliferative activity by MTT dye-reduction assay. Cell cultures from different cell lines (MCF-10A, MCF-7 and MDA-MB-231) were incubated with the test substances at a concentration of 15 to 2000 μM for 72 h at 37 °C, 5% CO2 and 95% humidity. The antiproliferative activity expressed in % relative to the negative control was determined.
(§2) The antiproliferative activity testing was performed on cell cultures from several human cell lines using the standard MTT dye-reduction assay, described by Mosmann. The assay is based on the metabolism of the tetrazolium salt 3-(4,5-dimethylthiazol-2-yl)-2,5-diphenyltetrazolium bromide (MTT) to insoluble formazan by mitochondrial reductases. The formazan concentration can be determined spectrophotometrically. The measured absorption is an indicator of cell viability and metabolic activity. The following cell lines were used in the experiments: mammary gland type A adenocarcinoma ER+, PR+ and HER2− (MCF-7); triple-negative breast cancer ER−, PR−, and HER2− (MDA-MB-231); and breast, nontumorigenic epithelial cell line (MCF-10A). The cell lines were routinely grown as monolayers in 75 cm^2 tissue culture flasks under standard conditions (described above). Cells were plated at a density of 1 × 10^3 cells in 100 µL in each well of 96-well flat-bottomed microplates and allowed to adhere for 24 h before treatment with test compounds. A concentration range from 15 to 2000 μM was applied for 72 h. Formazan absorption was registered using a microplate reader at λ = 540 nm. Antiproliferative activities were expressed as IC50 values (concentrations required for 50% inhibition of cell growth), calculated using nonlinear regression analysis (GraphPad Prism 4 Software, https://www.graphpad.com).

MDA-MB-231 [5] = experiment: Antiproliferative activity, MTT dye-reduction assay, MDA-MB-231; type: cell-based, human; details: for SI ± SD MDA-MB-231 (selective index): SI = IC50 of MCF-10A/IC50 of MDA-MB-231
Experimental: as §1, §2

[6] = In vitro cytotoxicity, 3T3 NRU test; type: cell-based; details: mouse, BALB/3T3 clone A31 mouse embryo cells, 24 h incubation, 15 to 2000 μM, read-out: IC50 of Mean ± SD Cytotoxicity BALB 3T3 (CC50)
Experimental: The newly synthesized compounds were studied for cytotoxicity assessment by an in vitro 3T3 NRU test. The cells were incubated with the test substances at a concentration of 15 to 2000 μM for 24 h at 37 °C, 5% CO2 and 95% humidity. The cytotoxicity expressed in % relative to the negative control was determined.
The cytotoxicity testing was performed as described by Borenfreund et al. and the latest modification of the validated BALB/3T3 clone A31 Neutral Red Uptake Assay (3T3 NRU test). BALB/3T3 clone A31 mouse embryo cells were grown as a monolayer in 75 cm^2 tissue culture flasks in high-glucose DMEM (4.5 g/L), supplemented with 10% FBS and antibiotics. Cultures were maintained at 37.5 °C in a humidified atmosphere under 5% CO2. Cells were plated at a density of 1 × 10^4 cells in 100 μL culture medium in each well of 96-well flat-bottomed microplates and allowed to adhere for 24 h before treatment with test compounds, dissolved in DMSO and further diluted in culture medium. A wide concentration range was applied (from 15 to 2000 μM), and the cells were incubated for an additional 24 h. After treatment with Neutral Red medium, washing and application of the ethanol/acetic acid solution (NR Desorb), the absorption was measured on a TECAN microplate reader at wavelength 540 nm. The data obtained are on average from three independent experiments ± SD, n = 6.

MCF-10A [7] = experiment: Antiproliferative activity, MTT dye-reduction assay, MCF-10A; type: cell-based, human; details: 72 h, read-out: IC50 of Mean ± SD Antiproliferative Activity MCF-10A
Experimental: as §1
MCF-10A is a reliable model for normal human mammary epithelial cells, which serves as a control in experiments to determine antitumor activity.
as §2

Escherichia coli K12 407 = experiment: Antimicrobial assay, agar/disc diffusion, E. coli; type: cell-based; details: 6 μL of 20 μM solution on 6 mm paper disc, 24 h
Experimental: (§3) The microbial cultures were placed in a thin layer on sterile plates. On sterile paper discs, 6 μL of 20 μM solutions in distilled water of the test compounds was placed. Further, the discs were incorporated into a thin layer of sterile plates (Figure 3). The studies were triplicates for each concentration, and the diameters of the obtained zones represent the average value of the three results.
(§4) All newly synthesized derivatives of (KLAKLAK)2-NH2 at concentrations of 20 μM in distilled water were tested against model strains E. coli NBIMCC K12 407, B. subtilis NBIMCC 3562 and C. albicans NBIMCC 74. The strains were obtained from the National Bank for Industrial Microorganisms and Cell Cultures (NBIMCC, Sofia, Bulgaria). Exponential cultures (1 × 10^7 cfu/mL) of strains E. coli K12 407 were obtained in Luria-Bertani (LB, HiMedia, Mumbai, India); for B. subtilis 3562, an initial bacterial concentration of 1 × 10^6 cfu/mL was obtained in nutrient broth (NB, HiMedia, Mumbai, India); and for C. albicans 74, and initial bacterial concentration of 1 × 10^5 cfu/mL was obtained in yeast mold (YM) medium. Cultivation was performed in an ES-20/60 incubator shaker (Biosan, Riga, Latvia) at 30 °C for B. subtilis 3562 and at 37 °C for E. coli K12 407 and C. albicans 74 with shaking at 220 rpm for 24 h. The agar diffusion method was applied to determine the antimicrobial activity of the tested compounds. LB/NB/YM plates were inoculated by spreading 100 μL of each microbial culture on their surface, followed by incubation at 30/37 °C for penetration of suspension into the agar. After 30 min, sterile paper discs (6 mm in diameter) were soaked with the tested compounds in amounts of 6 µL and placed on the surface of agar Petri dishes. The plates were incubated at 30/37 °C for 24 h. Antimicrobial activity was assessed by measuring the diameter of the obtained inhibition zones. Sterile paper discs soaked with water were used as blank controls. Mean values were calculated by performing the experiments in triplicates.

Bacillus subtilis 3562 = experiment: Antimicrobial assay, agar/disc diffusion, B. subtilis; type: cell-based; details: 6 μL of 20 μM solution on 6 mm paper disc, 24 h
Experimental: as §3, §4

Candida albicans 74 = experiment: Antimicrobial assay, agar/disc diffusion, C. albicans; type: cell-based; details: 6 μL of 20 μM solution on 6 mm paper disc, 24 h
Experimental: as §3, §4

[8] = Hydrolytic stability in model buffer solutions by HPLC; type: physicochemical; details: 72 h, model buffer solutions pH 2, pH 7.4 and pH 9, HPLC
Experimental: HPLC profiles of all target compounds at three different pH values that mimic human pH in the stomach (pH 2), blood plasma (pH 7.4) and small intestine (pH 9) are presented in the Supplementary Materials.
The designed changes in the structures, i.e., C-terminal amide modification, as well as the introduction of a β-Ala moiety, lead to complete stability of the target compounds during the test period in all model conditions.
The obtained solution was made up to 1000.0 mL with dH2O; • (ii) Buffer with pH 7.4–2.38 g Na2HPO4, 0.19 g KH2PO4 and 8.0 g NaCl was dissolved in dH2O. The obtained solution was made up to 1000.0 mL with dH2O. • (iii) Buffer with pH 9.0–1000.0 mL of solution I was mixed with 420.0 mL of solution II. Solution I: 6.18 g of H3BO3 was dissolved in 0.1 mol/L KCl, and it was made up to 1000.0 mL with the same solvent; Solution II: 0.1 mol/L NaOH.

Molecule	IC50 (MDA-MB-231 [1]) [µM]	IC50 (MCF-7 [2]) [µM]	IC50 (MCF-10A [3]) [µM]	SI ± SD MCF-7 (selective index) (MCF-7 [4])	SI ± SD MDA-MB-231 (selective index) (MDA-MB-231 [5])	CC50 at 24 h [6] [µM]	IC50 (MCF-7 [4]; MTT, 72 h, read-out: IC50 of Mean ± SD Antiproliferative Activity MCF-7) [µM]	SI ± SD MCF-7 (selective index) (MCF-7 [4]; listed as Si 10)	IC50 (MCF-10A [7]) [µM]	Inhibition zones size, Escherichia coli K12 407 (Escherichia coli K12 407) [mm]	Inhibition zones size, Bacillus subtilis 3562 (Bacillus subtilis 3562) [mm]	Inhibition zones size, Candida albicans 74 (Candida albicans 74) [mm]	melting point [°C]	Hydrolytic stability [8]	IC50 (MDA-MB-231 [5]; MTT, 72 h, read-out: IC50 of Mean ± SD Antiproliferative Activity MDA-MB-231) [µM]
KLAKLAK-NH2 [Si6]	> 2000	> 2000	> 2000												
CC(C)C[C@H](NC(=O)[C@H](CCCCN)NC(=O)[C@H](C)NC(=O)[C@H](CC(C)C)NC(=O)[C@H](CCCCN)NC(=O)[C@H](CCCCN)NC(=O)[C@H](C)NC(=O)[C@H](CC(C)C)NC(=O)[C@H](CCCCN)NC(=O)[C@H](C)NC(=O)[C@H](CC(C)C)NC(=O)[C@@H](N)CCCCN)C(=O)N[C@@H](C)C(=O)N[C@@H](CCCCN)C(N)=O [Si1, (KLAKLAK)2-NH2]	746 ± 7.6	124 ± 8.12	154 ± 6.53	1.243 ± 0.052	0.206 ± 0.007										
CC(C)C[C@H](NC(=O)[C@H](CCCCN)NC(=O)/C=C/c1ccc(O)c(O)c1)C(=O)N[C@@H](C)C(=O)N[C@@H](CCCCN)C(=O)N[C@@H](CC(C)C)C(=O)N[C@@H](C)C(=O)N[C@@H](CCCCN)C(=O)N[C@@H](CCCCN)C(=O)N[C@@H](CC(C)C)C(=O)N[C@@H](C)C(=O)N[C@@H](CCCCN)C(=O)N[C@@H](CC(C)C)C(=O)N[C@@H](C)C(=O)N[C@@H](CCCCN)C(N)=O [Si10, Caf-(KLAKLAK)2-NH2]				1.4 ± 0.072 and 1.44	0.411 ± 0.023	173 ± 8.51	50.5 ± 1.66	1.436 ± 0.072	72.5 ± 4.69	13.33 ± 0.33	12.66 ± 0.31	17.66 ± 0.41	122 to 124	complete hydrolytic stability	177 ± 2.79
